Laboratory results taken from US8653087B2, “Pyrido [5, 4-D] pyrimidines as cell proliferation inhibitors” (Boehringer Ingelheim International GmbH, priority 2008, dated 2014).
pIC50: −log10 of the molar value.

target: B-Raf (V600E)-kinase (Homo sapiens (Human), UniProt P15056, V600E); test: Kinase test B-RAF (V600E); format: biochemical; settings: B-RAF (V600E) kinase test, 250 μM ATP
Outline: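 Read-out is DELFIA europium TRF of phospho-MEK (Ser217/221) on biotinylated MEK1 bound to streptavidin plates, IC50 from dose-response. Reaction ran 60 min at RT with 250 μM ATP, after a 24 h RT preincubation of compound with B-Raf (V600E) kinase, 5% DMSO final.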

Sequence of B-Raf (V600E)-kinase (P15056 whole entry V600E): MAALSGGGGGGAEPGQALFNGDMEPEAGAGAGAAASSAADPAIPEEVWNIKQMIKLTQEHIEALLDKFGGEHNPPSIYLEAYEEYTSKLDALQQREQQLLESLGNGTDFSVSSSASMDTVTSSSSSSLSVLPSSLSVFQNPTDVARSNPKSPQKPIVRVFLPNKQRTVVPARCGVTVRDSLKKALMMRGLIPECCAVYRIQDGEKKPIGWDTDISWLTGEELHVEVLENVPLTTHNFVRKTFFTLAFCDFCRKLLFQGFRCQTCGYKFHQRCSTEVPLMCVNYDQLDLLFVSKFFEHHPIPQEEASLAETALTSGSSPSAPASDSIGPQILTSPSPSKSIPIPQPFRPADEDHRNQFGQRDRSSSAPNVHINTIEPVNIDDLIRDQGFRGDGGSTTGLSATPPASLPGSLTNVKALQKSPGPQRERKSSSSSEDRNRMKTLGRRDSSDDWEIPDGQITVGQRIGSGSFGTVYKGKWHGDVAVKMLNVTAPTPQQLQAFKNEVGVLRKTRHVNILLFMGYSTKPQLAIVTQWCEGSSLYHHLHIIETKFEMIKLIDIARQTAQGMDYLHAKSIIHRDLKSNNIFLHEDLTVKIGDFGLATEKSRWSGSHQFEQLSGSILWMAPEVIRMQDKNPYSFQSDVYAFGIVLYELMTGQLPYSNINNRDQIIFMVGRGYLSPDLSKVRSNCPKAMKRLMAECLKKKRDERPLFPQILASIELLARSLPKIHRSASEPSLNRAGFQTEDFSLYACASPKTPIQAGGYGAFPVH

Row | SMILES | pIC50
1 | Cc1ccc(C(=O)NCc2cccc(C(F)(F)F)c2)cc1Nc1ncnc2cnc(N3CCCN(C)CC3)nc12 [III-182] | 6.61
2 | Cc1ccc(C(=O)Nc2ccc(F)c(C(F)(F)F)c2)cc1Nc1ncnc2cnc(N3CCCCC3)nc12 [III-329] | 7.77
3 | Cc1ccc(C(=O)Nc2cc(C(C)(C)C)n[nH]2)cc1Nc1ncnc2c(N)nc(N3CCN(CC(C)C)CC3)nc12 [I-37] | 8.40
4 | COc1ccc(NC(=O)c2ccc(C)c(Nc3ncnc4cnc(N5CCN(CC6CCCN(C)C6)CC5)nc34)c2)cc1C(F)(F)F (stereo not drawn) [III-554] | 8.52
5 | CN1CCC(N(C)c2ncc3ncnc(Nc4cc(C(=O)Nc5cc(C(C)(C)C)on5)ccc4F)c3n2)C1 (stereo not drawn) [III-400] | 8.40
6 | COc1ccc(C(=O)Nc2ccc(OC)c(C(F)(F)F)c2)cc1Nc1ncnc2cnc(NCCN(C)C)nc12 [III-27] | 8.10
7 | Cc1ccc(C(=O)Nc2ccc(Cl)c(C(F)(F)F)c2)cc1Nc1ncnc2cnc(N(C)CCN(C)C)nc12 [III-235] | 8.70
8 | Cc1ccc(C(=O)Nc2cc(C(F)(F)F)ccn2)cc1Nc1ncnc2cnc(N3CCN(C)CC3)nc12 [III-261] | > 9.00
9 | Cc1ccc(C(=O)Nc2ccnc(C(C)(C)C)c2)cc1Nc1ncnc2cnc(N3CCC(CN4CCCC4)CC3)nc12 [III-604] | 8.52
10 | Cc1ccc(C(=O)Nc2cc(C(C)(C)C)n[nH]2)cc1Nc1ncnc2cnc(N3CCN(CC4CCOC4)CC3)nc12 (stereo not drawn) [III-602] | 8.05
11 | COc1ccc(NC(=O)c2ccc(C)c(Nc3ncnc4cnc(N5CCC(N6CCCC6)CC5)nc34)c2)cc1C(F)(F)F [III-560] | 8.15
12 | Cc1ccc(C(=O)Nc2cc(OCCN(C)C)cc(C(F)(F)F)c2)cc1Nc1ncnc2cnc(NC3CC3)nc12 [III-152] | > 9.00
13 | Cc1ccc(C(=O)NCc2cccc(C(C)(C)C)c2)cc1Nc1ncnc2cnc(N(C)CCN(C)C)nc12 [III-3] | 6.93
14 | Cc1ccc(C(=O)Nc2cc(OCCN(C)C)cc(C(F)(F)F)c2)cc1Nc1ncnc2cnc(N(C)C)nc12 [III-155] | 8.70
15 | Cc1ccc(NS(=O)(=O)CC2CCCO2)cc1Nc1ncnc2cnc(N3CCN(C)CC3)nc12 (stereo not drawn) [IV-62] | 5.70
16 | COc1ccc(C(=O)Nc2ccc(OC)c(C(F)(F)F)c2)cc1Nc1ncnc2cnc(NCCN3CCOCC3)nc12 [III-28] | 8.52
17 | Cc1ccc(C(=O)Nc2cccc(OC(F)(F)F)c2)cc1Nc1ncnc2cnc(N3CCCC3)nc12 [III-270] | 7.70
18 | Cc1cn(-c2cc(NC(=O)c3ccc(C)c(Nc4ncnc5cnc(N6CCC(F)(F)C6)nc45)c3)cc(C(F)(F)F)c2)cn1 [III-450] | 8.52
19 | CC(C)(C)c1cc(NC(=O)c2ccc(F)c(Nc3ncnc4cnc(N5CCCCC5)nc34)c2)no1 [III-88] | 8.30
20 | Cc1ccc(NC(=O)c2cccc(C(C)(C)C#N)c2)cc1Nc1ncnc2cnc(N3CCN(C4CC4)CC3)nc12 [IV-26] | 8.70
21 | COc1ccc(C(=O)Nc2cc(C(C)(C)C)on2)cc1Nc1ncnc2cnc(N3CCCN(C)CC3)nc12 [III-96] | 8.70
22 | Cc1ccc(NC(=O)c2cc(C(C)(C)C)n[nH]2)cc1Nc1ncnc2cnc(N3CCN(C)CC3)nc12 [IV-4] | 7.36
23 | Cc1ccc(C(=O)NC2CCCCC2)cc1Nc1ncnc2cnc(N3CCOCC3)nc12 [III-325] | 5.85
24 | COCCN1CCN(c2ncc3ncnc(Nc4cc(C(=O)Nc5ccc(OC)c(C(F)(F)F)c5)ccc4C)c3n2)CC1 [III-427] | 8.70

Row | SMILES | pIC50
25 | Cc1ccc(C(=O)NC2CC2)cc1Nc1ncnc2cnc(N(C)CCN(C)C)nc12 [III-203] | < 5.00
26 | CC(C)(C)c1cc(NC(=O)c2ccc(F)c(Nc3ncnc4cnc(NCCN5CCOCC5)nc34)c2)no1 [III-92] | 9.00
27 | Cc1ccc(C(=O)Nc2cc(C(F)(F)F)ccn2)cc1Nc1ncnc2cnc(NC3CCOC3)nc12 (stereo not drawn) [III-355] | > 9.00
28 | Cc1ccc(C(=O)Nc2cc(CN3CCCC3)cc(C(F)(F)F)c2)cc1Nc1ncnc2cnc(NCc3ccccc3)nc12 [III-105] | 8.52
29 | COc1ccc(C(C)(C)C)cc1NC(=O)c1ccc(C)c(Nc2ncnc3cnc(N4CCOCC4)nc23)c1 [III-306] | 8.40
30 | Cc1ccc(C(=O)NCc2cccc(C(F)(F)F)c2)cc1Nc1ncnc2cnc(N3CC[C@@H](F)C3)nc12 [III-207] | 7.96
31 | COc1ccc(NC(=O)c2ccc(C)c(Nc3ncnc4cnc(N5CCN(CC(C)C)CC5)nc34)c2)cc1C(F)(F)F [III-444] | 8.40
32 | Cc1ccc(C(=O)Nc2cc(CN3CCCC3)c(Cl)c(C(F)(F)F)c2)cc1Nc1ncnc2cnc(N3CCOCC3)nc12 [III-528] | 8.70
33 | Cc1ccc(C(=O)Nc2ccccc2)cc1Nc1ncnc2cnc(N3CCOCC3)nc12 [III-326] | 6.53
34 | COc1ccc(C(C)(C)C)cc1NC(=O)c1ccc(C)c(Nc2ncnc3cnc(N(C)CCN(C)C)nc23)c1 [III-240] | 8.40
35 | COc1c(CNC(C)C)cc(C(F)(F)F)cc1NC(=O)c1ccc(C)c(Nc2ncnc3cnc(N4CC[C@H](F)C4)nc23)c1 [III-542] | 7.92
36 | Cc1ccc(C(=O)Nc2cc(N3CCN(C)CC3)cc(C(F)(F)F)c2)cc1Nc1ncnc2cnc(N3CCOCC3)nc12 [III-462] | 9.00
37 | Cc1ccc(C(=O)Nc2ccnc(C(C)(C)C)c2)cc1Nc1ncnc2cnc(N3CCC(CCN(C)C)CC3)nc12 [III-606] | 8.52
38 | Cc1ccc(C(=O)Nc2cccc(C(C)(C)C#N)c2)cc1Nc1ncnc2cnc(N3CCN(C)CC3)nc12 [III-305] | 8.70
39 | COc1ccc(NC(=O)c2ccc(C)c(N(C)c3ncnc4cnc(NC5CCOC5)nc34)c2)cc1C(F)(F)F (stereo not drawn) [III-585] | 7.57
40 | COCCN1CCN(c2ncc3ncnc(Nc4cc(C(=O)Nc5cc(C(C)(C)C)ccc5OC)ccc4C)c3n2)CC1 [III-422] | 8.30
41 | Cc1ccc(C(=O)Nc2cc(N3CCN(C(C)C)CC3)cc(C(F)(F)F)c2)cc1Nc1ncnc2cnc(N3CCOCC3)nc12 [III-461] | 8.70
42 | COc1ccc(NC(=O)c2ccc(F)c(Nc3ncnc4cnc(N(C)CCN(C)C)nc34)c2)cc1C(F)(F)F [III-31] | > 9.00
43 | COc1ncc2ncnc(Nc3cc(C(=O)Nc4cc(C(C)(C)C)n[nH]4)ccc3C)c2n1 [III-575] | 8.52
44 | Cc1ccc(NS(=O)(=O)C2CC2)cc1Nc1ncnc2cnc(N3CCN(C)CC3)nc12 [IV-63] | 6.23
45 | Cc1ccc(C(=O)Nc2ccc(C#N)c(C(F)(F)F)c2)cc1Nc1ncnc2cnc(N3CCCN(C)CC3)nc12 [III-284] | 8.52
46 | Cc1ccc(C(=O)Nc2ccc(C(F)(F)F)cc2)cc1Nc1ncnc2c(N)nc(NCCN(C)C)nc12 [I-6] | 7.17
47 | Cc1ccc(C(=O)Nc2nnc(C(F)(F)F)s2)cc1Nc1ncnc2cnc(N3CCCC3)nc12 [III-264] | 5.59
48 | CN1CCN(c2cc(NC(=O)c3ccc(F)c(Nc4ncnc5cnc(NC6CCOC6)nc45)c3)cc(C(F)(F)F)c2F)CC1 (stereo not drawn) [III-389] | > 9.00

Row | SMILES | pIC50
49 | Cc1ccc(C(=O)Nc2cc(CN3CCCC3)cc(C(F)(F)F)c2)cc1Nc1ncnc2cnc(N3CCCC3)nc12 [III-109] | 8.70
50 | Cc1ccc(C(=O)Nc2ccc(C(F)(F)F)cc2)cc1Nc1ncnc2c(N)nc(N3CCN(CC4CCN(C)CC4)CC3)nc12 [I-8] | 8.70
51 | Cc1ccc(C(=O)Nc2cccc(C(C)(C)C)c2)cc1Nc1ncnc2c(N)nc(N3CCN(C)CC3)nc12 [I-80] | 8.70
52 | Cc1ccc(C(=O)Nc2cccc(C(C)(C)C)c2)cc1Nc1ncnc2cnc(N3CC[C@@H](F)C3)nc12 [III-244] | > 9.00
53 | CC(C)(C)c1cc(NC(=O)c2ccc(Cl)c(Nc3ncnc4cnc(NCCCN5CCOCC5)nc34)c2)no1 [III-74] | 9.00
54 | Cc1ccc(C(=O)Nc2cc(C(C)(C)C)on2)cc1Nc1ncnc2cnc(N3CC[C@H](F)C3)nc12 [III-412] | 8.30
55 | Cc1ccc(C(=O)NCC2CCOC2)cc1Nc1ncnc2cnc(N3CCOCC3)nc12 (stereo not drawn) [III-193] | < 4.82
56 | CCN1CCN(c2cc(NC(=O)c3ccc(C)c(Nc4ncnc5c(N)nc(N6CC[C@H](F)C6)nc45)c3)cc(C(F)(F)F)c2)CC1 [I-88] | 8.00
57 | COCCN(C)c1ncc2ncnc(Nc3cc(C(=O)Nc4ccc(OC)c(C(F)(F)F)c4)ccc3OC)c2n1 [III-17] | 8.52
58 | Cc1ccc(C(=O)Nc2cc(C(C)(C)C)on2)cc1N(C)c1ncnc2cnc(NC3CCOC3)nc12 (stereo not drawn) [III-581] | 7.48
59 | CN1CCCN(c2nc(N)c3ncnc(Nc4cc(C(=O)Nc5cccc(C(F)(F)F)c5)ccc4Br)c3n2)CC1 [I-27] | 7.08
60 | Cc1ccc(C(=O)Nc2cc(C(C)(C)C)on2)cc1Nc1ncnc2cnc(N3CCC4(CCN(C)C4)C3)nc12 (stereo not drawn) [III-603] | 9.00
61 | Cc1ccc(C(=O)Nc2cc(C(C)(C)C)on2)cc1Nc1ncnc2cnc(N3CCC(N4CCOCC4)CC3)nc12 [III-489] | 9.00
62 | Cc1ccc(C(=O)Nc2cc(C(C)(C)C)on2)cc1Nc1ncnc2cnc(N3CCC(N4CCCCC4)CC3)nc12 [III-485] | 8.52
63 | COCCN(C)c1ncc2ncnc(Nc3cc(C(=O)Nc4cc(C(C)(C)C)on4)ccc3Cl)c2n1 [III-67] | 8.30
64 | COCCN(C)c1ncc2ncnc(Nc3cc(C(=O)Nc4cc(C(C)(C)C)on4)ccc3C)c2n1 [III-474] | 9.00
65 | Cc1ccc(C(=O)Nc2cc(N(C)CCN(C)C)cc(C(F)(F)F)c2)cc1Nc1ncnc2cnc(N3CCOCC3)nc12 [III-442] | 9.00
66 | COCCN(C)c1ncc2ncnc(Nc3cc(C(=O)Nc4cc(C(C)(C)C)on4)ccc3F)c2n1 [III-84] | 8.70
67 | COc1ccc(NC(=O)c2ccc(C)c(Nc3ncnc4cnc(N5CC[C@H](F)C5)nc34)c2)cc1C(F)(F)F [III-411] | 8.52
68 | CC(=O)N1CCN(c2ncc3ncnc(Nc4cc(NC(=O)c5cccc(C(C)(C)C#N)c5)ccc4C)c3n2)CC1 [IV-36] | 8.40
69 | CN(C)C1CCN(c2ncc3ncnc(Nc4cc(C(=O)Nc5cc(C(C)(C)C)on5)ccc4F)c3n2)CC1 [III-401] | 8.52
70 | COc1c(NC(=O)c2ccc(C)c(Nc3ncnc4cnc(N5CC[C@H](F)C5)nc34)c2)cc(C(C)(C)C)cc1NS(C)(=O)=O [III-295] | 7.77
71 | COc1ccc(C(F)(F)F)cc1NC(=O)c1ccc(C)c(Nc2ncnc3cnc(N(C)CCN(C)C)nc23)c1 [III-234] | 7.82
72 | Cn1nc(C(C)(C)C)cc1NC(=O)c1cc(Cl)cc(Nc2ncnc3cnc(N4CCOCC4)nc23)c1 [III-376] | 8.15
